Reference: patent US10047068B2, “Optical resolution method of lenalidomide” (Shiseido Company, Ltd, priority 2014, dated 2018)

How the values were obtained:
[1] = Na-phosphate buffer pH 7.4, 37° C., average of 3 tests ± SD
[2] = Dependence of racemization half-life on pH in aqueous buffers at room temperature; type: physicochemical
Experimental: In order to elucidate the racemization half-life of lenalidomide and its pH dependence, an experiment was conducted with the following scheme and HPLC conditions.
The enantiomeric excess rate (EE, [(S−R)/(S+R)×100], %) at each point is plotted in FIG. 7, and the log10 (EE) vs. time plot is shown in FIG. 8.
This linearity was used to calculate the time for EE=50 based on a straight line approximation (y=ax+b), to determine the racemization half-life. The stability of the pure enantiomer is very highly dependent on pH, the half-life being 10 times longer for every pH reduction of 1, and estimation of the half-life was no longer possible at pH 4. At pH 9, on the other hand, sudden racemization and decomposition were observed.

[3] = Racemization half-life in human serum (37° C.); conditions: for racemization half-life in serum, times longer than the corresponding TD enantiomer: human serum, 37° C.
From the text: The analysis method of the invention is shown as scheme (b). The acid used to suspend the reaction while simultaneously precipitating and removing the protein was HClO4.

[4] = Stability of lenalidomide in different solvents; type: physicochemical; conditions: 0.5 mg/mL racemic mixture, room temperature or 50° C., 24 hours
[5] = NPL 11; cited from earlier work

Nc1cccc2c1CN(C1CCC(=O)NC1=O)C2=O (single isomer, unassigned) [(S*)-LL]
racemization half-life in aqueous buffer [1]: 4.53 ± 0.0217 h
racemization on incubation in aqueous buffer ([2]; pH 6, room temperature): small amount of (R*)-LL was produced
racemization on incubation in aqueous buffer ([2]; pH 7 and higher, room temperature): racemization was significantly accelerated
racemization half-life in serum, times longer than the corresponding TD enantiomer [3]: 6 times
racemization half-life in human serum [3]: 2.18 ± 0.0817 h

Nc1cccc2c1CN(C1CCC(=O)NC1=O)C2=O (racemic) [lenalidomide, Lenalidomide]
racemization and decomposition in aqueous buffer (peak areas) ([2]; pH 9 and 8, room temperature): racemization and decomposition of LL takes place
stability in solvent (enantiomer peak areas before and after incubation) ([4]; acetonitrile): no decomposition was observed
stability in solvent (enantiomer peak areas before and after incubation) ([4]; ethanol): highly unstable
stability in solvent (enantiomer peak areas before and after incubation) ([4]; ethyl acetate): no decomposition was observed
stability in solvent (enantiomer peak areas before and after incubation) ([4]; isopropanol): stable
stability in solvent (enantiomer peak areas before and after incubation) ([4]; methanol): highly unstable

O=C1CCC(N2C(=O)c3ccccc3C2=O)C(=O)N1 (racemic) [thalidomide]
excretion half-life [5]: 8.7 h

Nc1cccc2c1CN(C1CCC(=O)NC1=O)C2=O (single isomer, unassigned) [(R*)-LL]
racemization half-life in aqueous buffer [1]: 4.45 ± 0.0183 h
racemization half-life in serum, times longer than the corresponding TD enantiomer [3]: 3 times
racemization half-life in human serum [3]: 1.82 ± 0.0333 h
